Assay results published in patent US7423054B2, “Therapeutic pyrazolo[3,4-b]pyridines and indazoles” (Warner Lambert Company LLC, priority 2004, dated 2008).
Structures can show the parent of a compound that is named as a salt.

Assays:
[1] = target: T1, human norepinephrine transporter (hNET) (Homo sapiens, UniProt P23975); test: hNET receptor binding ([125I]-RTI-55 displacement, membranes of transfected HEK-293 cells); conditions: HEK-293 membranes, Ki from IC50 by Cheng-Prusoff, read-out: NET Ki
T1 construct: expressed in transfected cells; host or cells: HEK-293 cells (membrane preparation)
Text: (§1) The ability of the compounds of the present invention to inhibit a norepinephrine transporter and/or a serotonin transporter can be determined using conventional radioligand receptor transport assays. The receptors can be heterologously expressed in cell lines and experiments conducted in membrane preparations from the cell lines that express a norepinephrine transporter and/or a serotonin transporter.
(§2) Cell pastes of HEK-293 cells transfected with a human norepinephrine transporter cDNA were prepared. The cell pastes were resuspended in 400 to 700 ml of Krebs-HEPES assay buffer (25 mM HEPES, 122 mM NaCl, 3 mM KCl, 1.2 mM MgSO4, 1.3 mM CaCl2, and 11 mM glucose, pH 7.4) with a Polytron homogenizer at setting 7 for 30 seconds. Aliquots of membranes (5 mg/ml protein) were stored in liquid nitrogen until used.
The binding assay was set up in Beckman deep-well polypropylene plates with a total volume of 250 μl containing: test compound (10^−5M to 10^−12M), cell membranes, and 50 pM [^125I]-RTI-55 (Perkin Elmer, NEX-272; specific activity 2200 Ci/mmol). The reaction was incubated by gentle agitation for 90 minutes at room temperature and was terminated by filtration through Whatman GF/C filter plates using a Brandel 96-well plate harvester. Scintillation fluid (100 μl) was added to each well, and bound [^125I]-RTI-55 was determined using a Wallac Trilux Beta Plate Counter. Test compounds were run in duplicate, and specific binding was defined as the difference between binding in the presence and absence of 10 μM desipramine.
Excel and GraphPad Prism software were used for data calculation and analysis. IC50 values were converted to Ki values using the Cheng-Prusoff equation. The Ki values (nM) for the hNET are reported below in Table 11.

[2] = target: T2, human serotonin transporter (hSERT) (Homo sapiens, UniProt P31645); test: hSERT receptor binding ([125I]-RTI-55 displacement, membranes of transfected HEK-293 cells); conditions: HEK-293 membranes, Ki from IC50 by Cheng-Prusoff, read-out: SERT Ki
T2 construct: expressed in transfected cells; host or cells: HEK-293 cells (membrane preparation)
Description: as §1
as §2, with “serotonin” for “norepinephrine”, “Setting” for “setting”, “(˜2.5” for “(5”
Assays were set up in FlashPlates pre-coated with 0.1% PEI in a total volume of 250 μl containing: test compound (10^−5M to 10^−12M), cell membranes, and 50 pM [^125I]-RTI-55 (Perkin Elmer, NEX-272; specific activity 2200 Ci/mmol). The reaction was incubated and gently agitated for 90 minutes at room temperature, and terminated by removal of assay volume. Plates were covered, and bound [^125I]-RTI-55 was determined using a Wallac Trilux Beta Plate Counter. Test compounds were run in duplicate, and specific binding was defined as the difference between binding in the presence and absence of 10 μM citalopram.
Excel and GraphPad Prism software were used for data calculation and analysis. IC50 values were converted to Ki values using the Cheng-Prusoff equation. The Ki values (nM) for the hSERT are reported below in Table 11: […]

T1 sequence (P23975 whole entry): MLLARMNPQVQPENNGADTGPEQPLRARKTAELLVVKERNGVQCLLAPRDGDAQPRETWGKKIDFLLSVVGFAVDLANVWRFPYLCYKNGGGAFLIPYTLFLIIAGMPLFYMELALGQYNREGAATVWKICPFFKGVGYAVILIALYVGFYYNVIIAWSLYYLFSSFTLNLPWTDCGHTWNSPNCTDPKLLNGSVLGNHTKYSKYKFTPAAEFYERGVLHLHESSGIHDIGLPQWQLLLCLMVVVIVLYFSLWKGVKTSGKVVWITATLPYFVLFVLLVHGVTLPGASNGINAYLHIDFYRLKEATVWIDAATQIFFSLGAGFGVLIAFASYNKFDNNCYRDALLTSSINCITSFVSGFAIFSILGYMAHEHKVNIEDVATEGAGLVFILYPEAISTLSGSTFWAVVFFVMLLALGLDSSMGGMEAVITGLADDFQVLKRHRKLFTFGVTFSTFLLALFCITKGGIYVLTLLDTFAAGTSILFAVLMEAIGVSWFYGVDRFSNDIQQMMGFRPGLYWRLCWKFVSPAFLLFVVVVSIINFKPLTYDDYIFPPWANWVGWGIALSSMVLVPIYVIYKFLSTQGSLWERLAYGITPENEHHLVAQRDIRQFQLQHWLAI
T2 sequence (P31645 whole entry): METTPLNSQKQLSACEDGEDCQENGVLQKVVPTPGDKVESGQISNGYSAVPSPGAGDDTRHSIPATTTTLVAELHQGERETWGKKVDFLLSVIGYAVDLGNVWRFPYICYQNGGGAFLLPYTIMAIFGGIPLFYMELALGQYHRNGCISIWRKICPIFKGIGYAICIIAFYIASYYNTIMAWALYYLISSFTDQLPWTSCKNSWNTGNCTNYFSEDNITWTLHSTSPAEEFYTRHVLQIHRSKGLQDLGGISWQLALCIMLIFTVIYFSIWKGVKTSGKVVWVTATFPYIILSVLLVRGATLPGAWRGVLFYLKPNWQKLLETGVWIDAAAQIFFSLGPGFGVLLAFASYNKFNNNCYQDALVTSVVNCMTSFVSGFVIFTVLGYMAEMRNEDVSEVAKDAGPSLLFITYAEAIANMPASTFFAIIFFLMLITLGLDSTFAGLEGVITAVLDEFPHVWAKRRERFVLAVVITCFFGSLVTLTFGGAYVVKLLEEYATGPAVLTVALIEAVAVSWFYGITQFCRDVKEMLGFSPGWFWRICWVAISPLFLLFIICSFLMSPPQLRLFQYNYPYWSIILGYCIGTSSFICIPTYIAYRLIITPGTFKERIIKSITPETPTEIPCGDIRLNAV

Ki [1] [nM]	Ki [2] [nM]	SMILES
329	1460	c1ccc(-n2nc(OC3CCCNC3)c3ccccc32)cc1 (racemic) [Example 15, (±)-1-Phenyl-3-(piperidin-3-yloxy)-1H-indazole hydrochloride]
21.5	224	c1ccc(-n2nc(OCC3CCCNC3)c3ccccc32)cc1 (racemic) [Example 16, (±)-1-Phenyl-3-(piperidin-3-ylmethoxy)-1H-indazole hydrochloride]
151	28	c1ccc(-n2nc(OCC3CCNCC3)c3ccccc32)cc1 (racemic) [Example 17, (±)-1-Phenyl-3-(piperidin-4-ylmethoxy)-1H-indazole hydrochloride]
16.9	120	Fc1cccc(-n2nc(OCC3CCCNC3)c3ccccc32)c1 (racemic) [Example 66, (±)-1-(3-Fluoro-phenyl)-3-(piperidin-3-ylmethoxy)-1H-indazole hydrochloride]
19.7	191	Fc1ccc(-n2nc(OCC3CCCNC3)c3ccccc32)cc1 (racemic) [Example 67, (±)-1-(4-Fluoro-phenyl)-3-(piperidin-3-ylmethoxy)-1H-indazole hydrochloride]
219	359	Clc1ccc(-n2nc(OCC3CCCNC3)c3ccccc32)cc1 (racemic) [Example 68, (±)-1-(4-Chloro-phenyl)-3-(piperidin-3-ylmethoxy)-1H-indazole hydrochloride]
98	339	Clc1ccc2c(c1)c(OCC1CCCNC1)nn2-c1ccccc1 (racemic) [Example 69, (±)-5-Chloro-1-phenyl-3-(piperidin-3-ylmethoxy)-1H-indazol hydrochloride]
33.6	200	Fc1ccc2c(OCC3CCCNC3)nn(-c3ccccc3F)c2c1 (racemic) [Example 70, (±)-6-Fluoro-1-(2-fluoro-phenyl)-3-(piperidin-3-ylmethoxy)-1H-indazole hydrochloride]
49.5	172	Fc1ccc2c(c1)c(OCC1CCCNC1)nn2-c1ccc(F)c(F)c1 (racemic) [Example 96, (±)-1-(3,4-Difluoro-phenyl)-5-fluoro-3-(piperidin-3-ylmethoxy)-1H-indazole hydrochloride]
9.28	1620	Fc1ccccc1-n1nc(OC[C@@H]2CNCCO2)c2ccccc21 [Example 2, (S)-(+)-1-(2-Fluorophenyl)-3-(morpholin-2-ylmethoxy)-1H-indazole maleate]
3.4	832	Fc1ccc(-n2nc(OC[C@@H]3CNCCO3)c3ccccc32)c(F)c1 [Example 3, (S)-(+)-1-(2,4-Difluorophenyl)-3-(morpholin-2-ylmethoxy)-1H-indazole maleate]
3	270	Fc1ccccc1-n1nc(OCC2CCCNC2)c2ccccc21 (stereo not shown) [Example 4, 1-(2-Fluorophenyl)-3-(piperidin-3-ylmethoxy)-1H-indazole hydrochloride]
84	1610	Fc1ccccc1-n1nc(OC[C@H]2CNCCO2)c2ccccc21 [Example 5, (R)-(−)-1-(2-Fluorophenyl)-3-(morpholin-2-ylmethoxy)-1H-indazole hydrochloride]
1.65	192	Fc1ccccc1-n1nc(OC[C@H]2CCCNC2)c2ccccc21 [Example 6, (S)-(−)-1-(2-Fluorophenyl)-3-(piperidin-3-ylmethoxy)-1H-indazole hydrochloride]
14.3	36.1	Fc1ccc(-n2nc(OC3CCNCC3)c3ccccc32)c(F)c1 [Example 10, 1-(2,4-Difluoro-phenyl)-3-(piperidin-4-yloxy)-1H-indazole hydrochloride]
14	279	Fc1ccccc1-n1nc(OC[C@@H]2CCNC2)c2ccccc21 [Example 11, (R)-1-(2-Fluoro-phenyl)-3-(pyrrolidin-3-ylmethoxy)-1H-indazole hydrochloride]

Ki [1] [nM]	Ki [2] [nM]	SMILES
12.5	1010	Fc1ccccc1-n1nc(O[C@H]2CCCN2)c2ccccc21 [Example 12, (S)-(−)-1-(2-Fluorophenyl)-3-(pyrrolidin-2-yloxy)-1H-indazole hydrochloride]
131	5290	Fc1ccccc1-n1nc(O[C@@H]2CCCN2)c2ccccc21 [Example 13, (R)-(+)-1-(2-Fluorophenyl)-3-(pyrrolidin-2-yloxy)-1H-indazole maleate]
95.5	121	c1ccc(-n2nc(OC[C@@H]3CCCNC3)c3ccccc32)cc1 [Example 18, (R)-(+)-1-Phenyl-3-(piperidin-3-ylmethoxy)-1H-indazole hydrochloride]
5.43	486	c1ccc(-n2nc(OC[C@H]3CCCNC3)c3ccccc32)cc1 [Example 19, (S)-(−)-1-Phenyl-3-(piperidin-3-ylmethoxy)-1H-indazole hydrochloride]
12.5	1120	c1ccc(-n2nc(OC[C@@H]3CNCCO3)c3ccccc32)cc1 [Example 21, (S)-(+)-3-(Morpholin-2-ylmethoxy)-1-phenyl-1H-indazole hydrochloride]
25.7	68.2	c1ccc(-n2nc(OC[C@H]3CCNC3)c3ccccc32)cc1 [Example 22, (S)-1-Phenyl-3-(pyrrolidin-3-ylmethoxy)-1H-indazole hydrochloride]
11.5	1530	Fc1ccc(-n2nc(OC[C@@H]3CNCCO3)c3ccccc32)cc1F [Example 23, (S)-1-(3,4-Difluoro-phenyl)-3-(morpholin-2-ylmethoxy)-1H-indazole hydrochloride]
3.2	670	Fc1cccc(F)c1-n1nc(OC[C@H]2CCCNC2)c2ccccc21 [Example 25, (S)-1-(2,6-Difluoro-phenyl)-3-(piperidin-3-ylmethoxy)-1H-indazole maleate]
6.9	346	Fc1ccc(F)c(-n2nc(OC[C@@H]3CNCCO3)c3cc(F)ccc32)c1 [Example 26, (S)-1-(2,5-Difluoro-phenyl)-5-fluoro-3-(morpholin-2-ylmethoxy)-1H-indazole maleate]
5.1	640	Fc1ccc(F)c(-n2nc(OC[C@@H]3CNCCO3)c3ccccc32)c1 [Example 28, (S)-(+)-1-(2,5-Difluorophenyl)-3-(morpholin-2-ylmethoxy)-1H-indazole maleate]
4050	342	Clc1cc(Cl)cc(-n2nc(OC3CCNCC3)c3ccccc32)c1 [Example 29, 1-(3,5-Dichloro-phenyl)-3-(piperidin-4-yloxy)-1H-indazole hydrochloride]
19.2	198	Fc1ccc(-n2nc(OC[C@H]3CCCNC3)c3ccccc32)cc1F [Example 33, (S)-1-(3,4-Difluoro-phenyl)-3-(piperidin-3-ylmethoxy)-1H-indazole hydrochloride]
30	81	Fc1ccc(-n2nc(OC3CCNCC3)c3ccccc32)cc1F [Example 34, 1-(3,4-Difluoro-phenyl)-3-(piperidin-4-yloxy)-1H-indazole hydrochloride]
24	82.6	Fc1ccc(-n2nc(OC[C@H]3CCNC3)c3ccccc32)cc1F [Example 35, (S)-1-(3,4-Difluoro-phenyl)-3-(pyrrolidin-3-ylmethoxy)-1H-indazole hydrochloride]
5.16	82.7	Fc1cccc(F)c1-n1nc(OC2CCNCC2)c2ccccc21 [Example 36, 1-(2,6-Difluoro-phenyl)-3-(piperidin-4-yloxy)-1H-indazole hydrochloride]
6.05	105	Fc1cccc(F)c1-n1nc(OC[C@H]2CCNC2)c2ccccc21 [Example 37, (S)-1-(2,6-Difluoro-phenyl)-3-(pyrrolidin-3-ylmethoxy)-1H-indazole hydrochloride]
